Measurements reported in ChEMBL document CHEMBL6153041, “Discovery of High-Affinity SMARCA2/4 Bromodomain Ligands and Development of Potent and Exceptionally Selective SMARCA2 PROTAC Degraders” (J Med Chem, 2025).
Values belong to the compound of their own block, whether it stands above or below them.

How the values were obtained:
[1] = target: T1, von Hippel-Lindau disease tumor suppressor/SWI/SNF-related matrix-associated actin-dependent regulator of chromatin subfamily A member 2 (Homo sapiens, UniProt P51531+P40337); assay: PROTAC activity at VHL/SMARCA2 in human MV4-11 cells assessed as maximal degradation relative to control; assay type: cell-based
Target sequence in this assay (P51531 whole entry): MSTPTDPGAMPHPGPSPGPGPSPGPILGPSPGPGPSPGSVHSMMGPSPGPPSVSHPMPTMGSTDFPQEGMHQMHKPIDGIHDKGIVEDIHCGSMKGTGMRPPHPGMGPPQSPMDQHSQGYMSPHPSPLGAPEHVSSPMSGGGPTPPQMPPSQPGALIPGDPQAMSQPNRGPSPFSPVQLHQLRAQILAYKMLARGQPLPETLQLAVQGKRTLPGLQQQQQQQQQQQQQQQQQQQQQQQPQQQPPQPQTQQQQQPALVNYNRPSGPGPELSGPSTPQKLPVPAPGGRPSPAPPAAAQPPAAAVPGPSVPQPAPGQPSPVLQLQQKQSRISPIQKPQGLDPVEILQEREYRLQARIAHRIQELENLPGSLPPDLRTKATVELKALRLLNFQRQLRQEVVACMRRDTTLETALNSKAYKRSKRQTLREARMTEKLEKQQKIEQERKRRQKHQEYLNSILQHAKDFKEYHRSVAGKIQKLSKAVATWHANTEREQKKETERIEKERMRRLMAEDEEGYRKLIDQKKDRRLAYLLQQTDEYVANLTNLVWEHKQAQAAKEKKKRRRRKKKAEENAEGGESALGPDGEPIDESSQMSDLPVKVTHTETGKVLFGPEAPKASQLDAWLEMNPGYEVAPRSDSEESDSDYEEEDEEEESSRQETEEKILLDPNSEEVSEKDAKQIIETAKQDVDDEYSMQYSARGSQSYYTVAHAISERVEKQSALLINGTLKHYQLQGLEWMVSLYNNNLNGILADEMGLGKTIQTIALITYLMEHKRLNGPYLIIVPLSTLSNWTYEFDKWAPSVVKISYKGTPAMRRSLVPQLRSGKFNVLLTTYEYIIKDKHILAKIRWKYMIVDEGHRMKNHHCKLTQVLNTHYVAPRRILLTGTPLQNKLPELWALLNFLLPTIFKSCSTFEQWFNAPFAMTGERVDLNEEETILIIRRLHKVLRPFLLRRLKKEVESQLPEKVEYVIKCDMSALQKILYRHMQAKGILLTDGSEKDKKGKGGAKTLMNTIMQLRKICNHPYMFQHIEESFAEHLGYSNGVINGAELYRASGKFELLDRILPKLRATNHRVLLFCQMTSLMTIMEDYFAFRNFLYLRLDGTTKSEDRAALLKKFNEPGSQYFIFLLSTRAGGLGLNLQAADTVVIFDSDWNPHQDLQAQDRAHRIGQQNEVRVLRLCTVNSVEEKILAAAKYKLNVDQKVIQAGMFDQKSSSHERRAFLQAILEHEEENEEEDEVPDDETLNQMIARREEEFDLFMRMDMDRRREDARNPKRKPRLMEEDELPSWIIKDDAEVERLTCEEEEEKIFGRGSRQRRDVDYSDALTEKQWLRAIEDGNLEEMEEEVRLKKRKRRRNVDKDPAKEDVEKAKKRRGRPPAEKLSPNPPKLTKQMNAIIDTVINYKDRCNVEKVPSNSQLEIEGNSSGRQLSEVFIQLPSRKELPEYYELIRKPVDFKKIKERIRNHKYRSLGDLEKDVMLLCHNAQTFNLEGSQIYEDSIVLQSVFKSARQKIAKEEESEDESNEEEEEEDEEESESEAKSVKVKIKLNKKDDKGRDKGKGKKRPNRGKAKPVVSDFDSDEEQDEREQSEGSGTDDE
Target sequence in this assay (P40337 whole entry): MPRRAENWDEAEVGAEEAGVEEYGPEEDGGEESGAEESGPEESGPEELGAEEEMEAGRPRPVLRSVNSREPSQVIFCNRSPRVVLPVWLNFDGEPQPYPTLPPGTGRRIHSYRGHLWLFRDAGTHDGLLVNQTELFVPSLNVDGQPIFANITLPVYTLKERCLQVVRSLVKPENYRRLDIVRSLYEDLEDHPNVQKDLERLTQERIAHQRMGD

[2] = target: T2, von Hippel-Lindau disease tumor suppressor/SWI/SNF-related matrix-associated actin-dependent regulator of chromatin subfamily A member 4 (Homo sapiens, UniProt P51532+P40337); assay: PROTAC activity at VHL/SMARCA4 in human MV4-11 cells assessed as maximal degradation relative to control; assay type: cell-based
[3] = target: T2, von Hippel-Lindau disease tumor suppressor/SWI/SNF-related matrix-associated actin-dependent regulator of chromatin subfamily A member 4; assay: PROTAC activity at VHL/SMARCA4 in human MV4-11 cells assessed as degradation; assay type: cell-based
[4] = target: T1, von Hippel-Lindau disease tumor suppressor/SWI/SNF-related matrix-associated actin-dependent regulator of chromatin subfamily A member 2; assay: PROTAC activity at VHL1/SMARCA2 in human genetically modified Hela cells assessed as degradation measured after 24 hrs incubation by Nano-Glo HiBiT Lytic Detection Assay; assay type: cell-based
Target sequence in this assay (P51531 whole entry): as the sequence (P51531 whole entry) above
Target sequence in this assay (P40337 whole entry): as the sequence (P40337 whole entry) above

[5] = target: T2, von Hippel-Lindau disease tumor suppressor/SWI/SNF-related matrix-associated actin-dependent regulator of chromatin subfamily A member 4; assay: PROTAC activity at VHL1/SMARCA4 in human genetically modified Hela cells assessed as maximal degradation measured after 24 hrs incubation by Nano-Glo HiBiT Lytic Detection Assay relative to control; assay type: cell-based
[6] = target: T3, Protein cereblon/SWI/SNF-related matrix-associated actin-dependent regulator of chromatin subfamily A member 2 (Homo sapiens, UniProt P51531+Q96SW2); assay: PROTAC activity at CRBN/SMARCA2 in human RKO cells assessed as maximal degradation measured after 24 hrs by Western blot analysis relative to control; assay type: cell-based
[7] = target: T4, Protein cereblon/SWI/SNF-related matrix-associated actin-dependent regulator of chromatin subfamily A member 4 (Homo sapiens) (UniProt P51532+Q96SW2); assay: PROTAC activity at CRBN/SMARCA4 in human RKO cells assessed as maximal degradation measured after 24 hrs by Western blot analysis relative to control; assay type: cell-based
[8] = target: T3, Protein cereblon/SWI/SNF-related matrix-associated actin-dependent regulator of chromatin subfamily A member 2; assay: PROTAC activity at CRBN/SMARCA2 in human RKO cells assessed as degradation measured after 24 hrs by Western blot analysis; assay type: cell-based
[9] = target: T4, Protein cereblon/SWI/SNF-related matrix-associated actin-dependent regulator of chromatin subfamily A member 4 (Homo sapiens); assay: PROTAC activity at CRBN/SMARCA4 in human RKO cells assessed as degradation measured after 24 hrs by Western blot analysis; assay type: cell-based
[10] = target: T1, von Hippel-Lindau disease tumor suppressor/SWI/SNF-related matrix-associated actin-dependent regulator of chromatin subfamily A member 2; assay: PROTAC activity at VHL1/SMARCA2 in human genetically modified Hela cells assessed as maximal degradation measured after 24 hrs incubation by Nano-Glo HiBiT Lytic Detection Assay relative to control; assay type: cell-based
HeLa = assay: Selectivity ratio, ratio of DC50 for VHL1/SMARCA4 in human genetically modified Hela cells to VHL1/SMARCA2 in human genetically modified Hela cells; assay type: cell-based
[11] = target: T2, von Hippel-Lindau disease tumor suppressor/SWI/SNF-related matrix-associated actin-dependent regulator of chromatin subfamily A member 4; assay: PROTAC activity at VHL1/SMARCA4 in human genetically modified Hela cells assessed as degradation measured after 24 hrs incubation by Nano-Glo HiBiT Lytic Detection Assay; assay type: cell-based
Target sequence in this assay (P51532 whole entry): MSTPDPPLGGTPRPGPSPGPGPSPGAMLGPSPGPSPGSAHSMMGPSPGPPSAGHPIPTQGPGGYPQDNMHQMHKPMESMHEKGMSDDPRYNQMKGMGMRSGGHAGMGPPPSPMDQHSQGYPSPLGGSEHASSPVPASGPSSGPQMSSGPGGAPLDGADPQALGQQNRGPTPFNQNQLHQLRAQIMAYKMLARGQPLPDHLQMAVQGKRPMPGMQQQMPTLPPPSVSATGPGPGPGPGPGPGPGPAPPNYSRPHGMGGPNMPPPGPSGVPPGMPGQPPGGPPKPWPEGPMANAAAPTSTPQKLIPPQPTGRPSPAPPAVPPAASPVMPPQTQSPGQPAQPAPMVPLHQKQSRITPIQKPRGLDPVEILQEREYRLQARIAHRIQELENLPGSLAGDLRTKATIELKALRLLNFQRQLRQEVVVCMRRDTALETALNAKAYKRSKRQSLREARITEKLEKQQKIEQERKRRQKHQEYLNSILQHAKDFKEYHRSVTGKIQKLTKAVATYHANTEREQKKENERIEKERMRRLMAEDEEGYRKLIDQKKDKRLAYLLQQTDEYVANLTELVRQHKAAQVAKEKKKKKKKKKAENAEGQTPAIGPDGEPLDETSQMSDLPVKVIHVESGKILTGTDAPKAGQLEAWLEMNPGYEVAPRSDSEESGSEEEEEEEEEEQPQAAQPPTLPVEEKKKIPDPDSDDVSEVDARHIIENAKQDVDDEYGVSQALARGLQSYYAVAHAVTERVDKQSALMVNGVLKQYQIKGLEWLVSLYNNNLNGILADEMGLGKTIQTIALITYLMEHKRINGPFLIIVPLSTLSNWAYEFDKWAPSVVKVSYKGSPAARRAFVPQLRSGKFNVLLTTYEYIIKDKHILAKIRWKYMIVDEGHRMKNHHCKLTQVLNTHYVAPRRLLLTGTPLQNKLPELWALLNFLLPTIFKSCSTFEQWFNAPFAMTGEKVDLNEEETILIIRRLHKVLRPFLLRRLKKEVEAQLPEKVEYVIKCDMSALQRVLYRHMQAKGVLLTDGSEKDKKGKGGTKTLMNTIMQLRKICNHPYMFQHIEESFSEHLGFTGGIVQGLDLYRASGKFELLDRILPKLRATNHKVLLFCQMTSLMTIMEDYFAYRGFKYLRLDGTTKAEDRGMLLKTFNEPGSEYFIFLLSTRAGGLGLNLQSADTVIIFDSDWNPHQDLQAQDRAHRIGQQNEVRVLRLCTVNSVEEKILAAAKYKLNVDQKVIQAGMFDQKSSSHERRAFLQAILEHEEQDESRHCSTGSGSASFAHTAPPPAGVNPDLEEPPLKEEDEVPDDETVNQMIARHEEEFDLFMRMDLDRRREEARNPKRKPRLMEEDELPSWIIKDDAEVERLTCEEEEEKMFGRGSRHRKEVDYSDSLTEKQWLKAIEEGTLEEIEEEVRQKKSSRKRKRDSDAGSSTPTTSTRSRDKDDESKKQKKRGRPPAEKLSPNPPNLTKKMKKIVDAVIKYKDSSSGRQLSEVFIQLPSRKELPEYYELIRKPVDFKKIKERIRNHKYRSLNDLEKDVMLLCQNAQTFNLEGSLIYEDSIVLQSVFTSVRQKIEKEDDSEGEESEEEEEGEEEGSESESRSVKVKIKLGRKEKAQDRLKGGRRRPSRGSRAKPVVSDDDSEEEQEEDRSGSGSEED
Target sequence in this assay (P40337 whole entry): as the sequence (P40337 whole entry) above

[12] = target: T1, von Hippel-Lindau disease tumor suppressor/SWI/SNF-related matrix-associated actin-dependent regulator of chromatin subfamily A member 2; assay: PROTAC activity at VHL1/SMARCA2 in human NCI-H1792 cells assessed as degradation measured after 24 hrs incubation by Western blot analysis; assay type: cell-based
Target sequence in this assay (P51531 whole entry): as the sequence (P51531 whole entry) above
Target sequence in this assay (P40337 whole entry): as the sequence (P40337 whole entry) above

[13] = target: T2, von Hippel-Lindau disease tumor suppressor/SWI/SNF-related matrix-associated actin-dependent regulator of chromatin subfamily A member 4; assay: PROTAC activity at VHL1/SMARCA4 in human genetically modified Hela cells assessed as degradation measured after 48 hrs incubation by Nano-Glo HiBiT Lytic Detection Assay; assay type: cell-based
Target sequence in this assay (P51532 whole entry): as the sequence (P51532 whole entry) above
Target sequence in this assay (P40337 whole entry): as the sequence (P40337 whole entry) above

NCI-H1792 [14] = assay: Anticancer activity against human NCI-H1792 cells harbouring wild type SMARCA4 assessed as inhibition of cell growth measured after 7 days incubation by WST-8 assay; assay type: functional; details: NCI-H1792, 168 h, time 7 day
[15] = target: T2, von Hippel-Lindau disease tumor suppressor/SWI/SNF-related matrix-associated actin-dependent regulator of chromatin subfamily A member 4; assay: PROTAC activity at VHL1/SMARCA4 in human genetically modified Hela cells assessed as degradation measured after 4 hrs incubation by Nano-Glo HiBiT Lytic Detection Assay; assay type: cell-based
Target sequence in this assay (P51532 whole entry): as the sequence (P51532 whole entry) above
Target sequence in this assay (P40337 whole entry): as the sequence (P40337 whole entry) above

[16] = target: T2, von Hippel-Lindau disease tumor suppressor/SWI/SNF-related matrix-associated actin-dependent regulator of chromatin subfamily A member 4; assay: PROTAC activity at VHL1/SMARCA4 mutant in human SK-MEL-5 cells assessed as degradation measured after 24 hrs incubation by Western blot analysis; assay type: cell-based
[17] = target: T2, von Hippel-Lindau disease tumor suppressor/SWI/SNF-related matrix-associated actin-dependent regulator of chromatin subfamily A member 4; assay: PROTAC activity at VHL1/SMARCA4 in human genetically modified Hela cells assessed as degradation measured after 8 hrs incubation by Nano-Glo HiBiT Lytic Detection Assay; assay type: cell-based
Target sequence in this assay (P51532 whole entry): as the sequence (P51532 whole entry) above
Target sequence in this assay (P40337 whole entry): as the sequence (P40337 whole entry) above

SK-MEL-5 [18] = assay: Anticancer activity against SMARCA4 deficient human SK-MEL-5 cells assessed as maximal inhibition of cell growth measured after 7 days incubation by WST-8 assay relative to control; assay type: functional; details: time 7 day
[19] = target: T2, von Hippel-Lindau disease tumor suppressor/SWI/SNF-related matrix-associated actin-dependent regulator of chromatin subfamily A member 4; assay: PROTAC activity at VHL1/SMARCA4 mutant in human NCI-H838 cells assessed as degradation measured after 24 hrs incubation by Western blot analysis; assay type: cell-based
[20] = target: T2, von Hippel-Lindau disease tumor suppressor/SWI/SNF-related matrix-associated actin-dependent regulator of chromatin subfamily A member 4; assay: PROTAC activity at VHL1/SMARCA4 in human genetically modified Hela cells assessed as maximal degradation measured after 4 hrs incubation by Nano-Glo HiBiT Lytic Detection Assay relative to control; assay type: cell-based
[21] = target: T1, von Hippel-Lindau disease tumor suppressor/SWI/SNF-related matrix-associated actin-dependent regulator of chromatin subfamily A member 2; assay: PROTAC activity at VHL1/SMARCA2 in human genetically modified Hela cells assessed as maximal degradation measured after 48 hrs incubation by Nano-Glo HiBiT Lytic Detection Assay relative to control; assay type: cell-based
[22] = target: T1, von Hippel-Lindau disease tumor suppressor/SWI/SNF-related matrix-associated actin-dependent regulator of chromatin subfamily A member 2; assay: PROTAC activity at VHL1/SMARCA2 in human NCI-H1792 cells assessed as maximal degradation measured after 24 hrs incubation by Western blot analysis relative to control; assay type: cell-based
[23] = target: T2, von Hippel-Lindau disease tumor suppressor/SWI/SNF-related matrix-associated actin-dependent regulator of chromatin subfamily A member 4; assay: PROTAC activity at VHL1/SMARCA4 in human genetically modified Hela cells assessed as maximal degradation measured after 8 hrs incubation by Nano-Glo HiBiT Lytic Detection Assay relative to control; assay type: cell-based
[24] = target: T1, von Hippel-Lindau disease tumor suppressor/SWI/SNF-related matrix-associated actin-dependent regulator of chromatin subfamily A member 2; assay: PROTAC activity at VHL1/SMARCA2 in human genetically modified Hela cells assessed as degradation measured after 4 hrs incubation by Nano-Glo HiBiT Lytic Detection Assay; assay type: cell-based
Target sequence in this assay (P51531 whole entry): as the sequence (P51531 whole entry) above
Target sequence in this assay (P40337 whole entry): as the sequence (P40337 whole entry) above

SK-MEL-5 [25] = assay: Anticancer activity against SMARCA4 deficient human SK-MEL-5 cells assessed as inhibition of cell growth measured after 7 days incubation by WST-8 assay; assay type: functional; details: SK-MEL-5, 168 h, time 7 day
[26] = test system: von Hippel-Lindau disease tumor suppressor/SWI/SNF-related matrix-associated actin-dependent regulator of chromatin subfamily A member 4 (Homo sapiens), P51532+P40337 [UNDEFINED MUTATION]; assay: PROTAC activity at VHL1/SMARCA4 mutant in human SK-MEL-5 cells assessed as maximal degradation measured after 24 hrs incubation by Western blot analysis relative to control; assay type: cell-based
[27] = target: T1, von Hippel-Lindau disease tumor suppressor/SWI/SNF-related matrix-associated actin-dependent regulator of chromatin subfamily A member 2; assay: PROTAC activity at VHL1/SMARCA2 in human genetically modified Hela cells assessed as degradation measured after 48 hrs incubation by Nano-Glo HiBiT Lytic Detection Assay; assay type: cell-based
Target sequence in this assay (P51531 whole entry): as the sequence (P51531 whole entry) above
Target sequence in this assay (P40337 whole entry): as the sequence (P40337 whole entry) above

SK-MEL-28 [28] = assay: Anticancer activity against human SK-MEL-28 cells harbouring wild type SMARCA4 assessed as maximal inhibition of cell growth measured after 7 days incubation by WST-8 assay relative to control; assay type: functional; details: time 7 day
[29] = target: T1, von Hippel-Lindau disease tumor suppressor/SWI/SNF-related matrix-associated actin-dependent regulator of chromatin subfamily A member 2; assay: PROTAC activity at VHL1/SMARCA2 in human genetically modified Hela cells assessed as maximal degradation measured after 8 hrs incubation by Nano-Glo HiBiT Lytic Detection Assay relative to control; assay type: cell-based
[30] = target: T2, von Hippel-Lindau disease tumor suppressor/SWI/SNF-related matrix-associated actin-dependent regulator of chromatin subfamily A member 4; assay: PROTAC activity at VHL1/SMARCA4 in human genetically modified Hela cells assessed as maximal degradation measured after 48 hrs incubation by Nano-Glo HiBiT Lytic Detection Assay relative to control; assay type: cell-based
[31] = target: T1, von Hippel-Lindau disease tumor suppressor/SWI/SNF-related matrix-associated actin-dependent regulator of chromatin subfamily A member 2; assay: PROTAC activity at VHL1/SMARCA2 in human genetically modified Hela cells assessed as degradation measured after 8 hrs incubation by Nano-Glo HiBiT Lytic Detection Assay; assay type: cell-based
Target sequence in this assay (P51531 whole entry): as the sequence (P51531 whole entry) above
Target sequence in this assay (P40337 whole entry): as the sequence (P40337 whole entry) above

[32] = test system: von Hippel-Lindau disease tumor suppressor/SWI/SNF-related matrix-associated actin-dependent regulator of chromatin subfamily A member 4 (Homo sapiens), P51532+P40337 [UNDEFINED MUTATION]; assay: PROTAC activity at VHL1/SMARCA4 mutant in human NCI-H838 cells assessed as maximal degradation measured after 24 hrs incubation by Western blot analysis relative to control; assay type: cell-based
[33] = target: T2, von Hippel-Lindau disease tumor suppressor/SWI/SNF-related matrix-associated actin-dependent regulator of chromatin subfamily A member 4; assay: PROTAC activity at VHL1/SMARCA4 in human NCI-H1792 cells assessed as maximal degradation measured after 24 hrs incubation by Western blot analysis relative to control; assay type: cell-based
[34] = target: T2, von Hippel-Lindau disease tumor suppressor/SWI/SNF-related matrix-associated actin-dependent regulator of chromatin subfamily A member 4; assay: PROTAC activity at VHL1/SMARCA4 in human NCI-H1792 cells assessed as degradation measured after 24 hrs incubation by Western blot analysis; assay type: cell-based
Target sequence in this assay (P51532 whole entry): as the sequence (P51532 whole entry) above
Target sequence in this assay (P40337 whole entry): as the sequence (P40337 whole entry) above

SK-MEL-28 [35] = assay: Anticancer activity against human SK-MEL-28 cells harbouring wild type SMARCA4 assessed as inhibition of cell growth measured after 7 days incubation by WST-8 assay; assay type: functional; details: SK-MEL-28, 168 h, time 7 day
[36] = target: T1, von Hippel-Lindau disease tumor suppressor/SWI/SNF-related matrix-associated actin-dependent regulator of chromatin subfamily A member 2; assay: PROTAC activity at VHL1/SMARCA2 in human genetically modified Hela cells assessed as maximal degradation measured after 4 hrs incubation by Nano-Glo HiBiT Lytic Detection Assay relative to control; assay type: cell-based
NCI-H1792 [37] = assay: Anticancer activity against human NCI-H1792 cells harbouring wild type SMARCA4 assessed as maximal inhibition of cell growth measured after 7 days incubation by WST-8 assay relative to control; assay type: functional; details: time 7 day
[38] = Anticancer activity against SMARCA4 deficient human NCI-H838 cells assessed as maximal inhibition of cell growth measured after 7 days incubation by WST-8 assay relative to control; assay type: functional; details: time 7 day
[39] = Anticancer activity against SMARCA4 deficient human NCI-H838 cells assessed as inhibition of cell growth measured after 7 days incubation by WST-8 assay; assay type: functional; details: NCI-H838, 168 h, time 7 day

DC50 [1]: 11 nM
Emax [2]: > 95%
Emax [3]: > 95%
Compound: Cc1ncsc1-c1ccc(CNC(=O)[C@@H]2C[C@@H](O)CN2C(=O)[C@@H](NC(=O)C2(F)CC2)C(C)(C)C)c(OCCOc2ccc(CN3CCN(c4cc(-c5ccccc5O)nnc4N)CC3)cc2)c1

Compound: Cc1ncsc1-c1ccc([C@H](CC[C@H](C)CCN2CCC(c3ccc4c(c3)n(C3CCCC3)c3nc(=O)c5c(Br)cccc5n43)CC2)NC(=O)[C@@H]2C[C@@H](O)CN2C(=O)[C@@H](NC(=O)C2(F)CC2)C(C)(C)C)cc1
DC50 [4]: 2.3 nM
Emax [5]: 86%
DC50 [6]: 32 nM
Emax [7]: 67%
DC50 [8]: 1 nM
Emax [9]: 81%
Emax [10]: 93%
Ratio (HeLa): 12
DC50 [11]: 33 nM

Compound: Cc1ncsc1-c1ccc([C@H](CCCCCN2CCC(c3ccc4c(c3)C3(CCCCC3)c3nc(=O)c5c(Cl)cccc5n3-4)CC2)NC(=O)[C@@H]2C[C@@H](O)CN2C(=O)[C@@H](NC(=O)C2(F)CC2)C(C)(C)C)cc1
DC50 [4]: 0.4 nM
DC50 [12]: 1.7 nM
DC50 [13]: 27 nM
Emax [5]: 96%
GI50 (NCI-H1792 [14]): 10.5 nM
DC50 [15]: 38 nM
DC50 [16]: 81.1 nM
DC50 [17]: 27 nM
Imax (SK-MEL-5 [18]): 96%
DC50 [19]: 76.2 nM
Emax [20]: 96%
Emax [21]: 99%
Emax [22]: 99%
Emax [23]: 96%
DC50 [24]: 10 nM
GI50 (SK-MEL-5 [25]): 1.1 nM
Emax [26]: 87%
DC50 [27]: 4 nM
Imax (SK-MEL-28 [28]): 91%
Emax [29]: 97%
Emax [30]: 98%
DC50 [31]: 6 nM
Emax [32]: 89%
Emax [33]: 99%
Emax [10]: 97%
Ratio (HeLa): 8
DC50 [11]: 3.3 nM
DC50 [34]: 26 nM
GI50 (SK-MEL-28 [35]): 24.8 nM
Emax [36]: 97%
Imax (NCI-H1792 [37]): 52%
Imax [38]: 92%
GI50 [39]: 10.5 nM
